Results from US20250032446A1, “METHODS AND COMPOSITIONS FOR THE BIOSYNTHESIS AND USE OF DEMETHYLATED POLYMETHOXY FLAVONES” (RUTGERS, THE STATE UNIVERSITY OF NEW JERSEY, priority 2021, published 2025).
Values after ≈ are worked out from the molar mass of the structure shown. “Also recorded” adds a separate entry of the source. Read-outs that look alike come from different tables or passages of the source.

Columns and labels:
[1] = test system: PPARγ; experiment: Immunoblotting, PPARγ expression; format: cell-based, mouse; conditions: early treatment, day 3
Procedure: (§1) Primary antibodies which include AMPK-amAb, and Phospho-AMPKa(p-AMPKa) (Thr172) mAb, Acetyl-CoA Carboxylase (ACC) mAb, fatty acid synthase mAb RAs-related Nuclear protein (Ran) pAb, PPARc mAb, and C/EBPa pAb were all obtained from Cell Signaling Technology (Danvers, MA, USA). They were diluted by 1000 times for immunoblotting analyses.
(§2) At day 3 or day 8, cells are harvested with scraper and homogenized with lysis buffer containing 0.5 mM PMSF, 1 mM mini-complete protease inhibitor cocktail (Sigma, St. Louis, MO, USA) and phosphatase inhibitor cocktail (Sigma, St. Louis, MO, USA). Lysates are syringed with 26 gauge ½ in. needles on ice and then applied for centrifugation at 14,000g for 15 min at 4° C. Protein concentration of cell lysates are determined by using Protein and Protein Broad Range (BR) Assay Kits (Thermofisher, Waltham, MA USA) according to the venture's protocol. Lysates are then stored at −80° C. or immediately are subjected to sodium dodecyl sulfate polyacrylamide gel electrophoresis (SDS-PAGE). For the SDS-PAGE, cell lysates are mixed with loading buffer and heated at 95° C. for 5 min prior to electrophoresis. […] Quantification is performed by measuring band intensity using ImageJ software and calculating the ratio of protein of interesting to RAN the internal loading control.

[2] = test system: AMPK; experiment: Immunoblotting, AMPK and p-AMPK; format: cell-based, mouse; conditions: early and terminal differentiation processes
Procedure: as §1, §2

[3] = test system: C/EBPα; experiment: Immunoblotting, C/EBPα expression; format: cell-based, mouse; conditions: early treatment, day 3
Procedure: as §1, §2

[4] = test system: ACC; experiment: Immunoblotting, ACC expression; format: cell-based, mouse; conditions: late phase treatment group, day 8
Procedure: as §1, §2

[5] = MTT assay, pre-confluent cell proliferation; format: cell-based, mouse; conditions: mouse, pre-confluent 3T3-L1 preadipocytes
Procedure: (§3) 3T3-L1 cells were purchased from American Type Culture Collection (ATCC, Rockville, MD) and maintained in MEME media with 10% FBS 1% penicillin/streptomycin (GIBCO, Paisley, UK) in a humidified atmosphere of 5% CO2 in air at 37° C. Cells were passaged by using 0.05% (vol) Trypsin and replated in 55-cm^2 dishes at a density of 1*10^4 cells/cm^2 until confluence.
(§4) For treatment, nobiletin and the mixture of 6- and 7-OH-nobiletin (M67N) in a 1:49 ratio were first dissolved in dimethyl sulphoxide (DMSO) to make stock solution (5 mM to 100 mM). (FIG. 20) The stock solution was then diluted by 1000 times with culture medium to designated concentrations. Cells cultured in full DMEM was set as negative control while cells treated with DM with 0.1% DMSO as positive control.
(§5) 3T3-L1 cells were seeded on 96-well plate at density of 1×10^4 cells/well and incubated overnight for cell attachment. For measuring pre-confluent cell proliferation, cells were cultivated for 36 hours and full MEME with or without nobiletin or M67N was used. For measuring post-confluent cell proliferation during first three days of differentiation, cells were switched to DM with different concentrations of nobiletin or M67N for 72 hours. At the end of each treatment, cells were washed with PBS three times. MTT ([…]) was added at concentration of 0.5 mg/mL to the cells. After a 3-hour incubation, the medium was decanted from each well and 150 μL DMSO was added to dissolve the formed formazan crystals on a shaker. When the crystal was completely dissolved, the absorbance at 570 nm was measured. Cell viability was interpreted as the percentage (%) of the readout of treated cells divided by that of control. Six repeats were carried out for each concentration.
(§6) 3T3-L1 cells were seeded on 96-well plate at density of 1×10^4 cells/well and were incubated overnight for cell attachment. For measuring pre-confluent cell proliferation, full MEME with or without nobiletin or 6-OH-nobiletin, or 7-OH-nobiletin was used and cells were cultivated for 36 hours. For measuring post-confluent cell proliferation during the first three days of differentiation, cells were treated after 2 days of confluence. Specifically, cells were switched to differentiation medium (DM) with different concentrations of targeted compounds for 24 hours. At the end of each treatment, cells were washed with PBS three times followed by the addition of 100 μL MTT at concentration of 0.5 mg/mL. After 3 hours' incubation, the medium in each well were decanted while 150 μL DMSO was added to dissolve the formed formazan crystals at a shaker. When the crystals were completely dissolved, the absorbance of at 590 nm was measured. Cell viability was interpreted as the percentage (%) of the readout of treated cells divided by that of control. Five repeats were carried out for each concentration.

[6] = Effect of pH of fermented media on extracted content of M2 and M3 (stability); format: physicochemical; conditions: for stability at alkaline condition: pH 8.0 and 10.0
Procedure: Lastly, the fermented media was adjusted to pH 2.0, 5.0, 6.5, 7.0, 8.0 and 10.0 using HCl or NaOH. Subsequently, 3 extractions were conducted, and the sample was dried, weighed and analyzed using HPLC. The amount of extracted metabolites were compared and used to evaluate the effect of pH on extraction.

[7] = test system: FAS; experiment: Immunoblotting, FAS expression; format: cell-based, mouse; conditions: late phase treatment group, day 8
Procedure: as §1, §2

[8] = test system: post-confluent 3T3-L1 cells; experiment: MTT assay, post-confluent cells (mitotic clonal expansion); format: cell-based, mouse; conditions: 5 μM to 25 μM
Procedure: as §5, §6

[9] = as above; format: cell-based, mouse; conditions: mouse, post-confluent 3T3-L1 cells, percent of control, read-out: cell viability
Procedure: as §5, §6

[10] = test system: differentiating 3T3-L1 adipocytes; experiment: Oil Red O staining, lipid accumulation; format: cell-based, mouse; conditions: for intracellular lipid content: 15 μM; for intracellular lipid content / lipid formation / accumulation reduced to: relative to positive control; for inhibition at 50 µM: Mus musculus, 3T3-L1; for effect on intracellular lipid accumulation: various concentrations, Oil Red O at day 8
Procedure: Two days after confluence, designated as day 0, adipocyte differentiation was initiated by culturing the cells for three days in differentiation medium (DM) which contained 10 μg/mL insulin, 0.5 mM IBMX, and 1 μM dexamethasone in complete culture medium. At day 3, the medium was replaced with DMEM, containing 10 μg/mL insulin. The medium was changed every two days until day 8. Cells were harvested on day 3 or day 8.
as §4
On day 8, cell layers were washed with 1×PBS and fixed with 10% paraformaldehyde (Sigma, St. Louis, MO, USA). After 15 minutes' fixation, the medium in each well was decanted and placed in a fume hood for complete dryness. Afterwards, cells were subjected to Oil Red O staining for 30 min, which was followed by immediate rinse in water. The intracellular lipid droplets were checked and pictures were captured on Olympus FSX100 Microscope. For the quantification of intracellular lipids, dyes were dissolved in 4% NP-40/isopropanol and the absorbance was measured at 520 nm by a microplate reader.

[11] = test system: 3T3-L1 cells; experiment: Flow cytometry with PI staining, cell cycle distribution; format: cell-based, mouse
Procedure: 3T3-L1 cells were seeded in six-well plates at a density of 3-5×10^5/well. After 2 days of confluency, cells were treated with DM in the absence or presence of several doses of nobiletin or […] for 24h. Both detached and adherent cells were harvested by trypsinization and washed with phosphate buffered saline (PBS). Cells were fixed with 70% ice cold ethanol and placed at 4° C. overnight. After removal of ethanol, cells were stained with propidium iodide containing RNAse ((Carlsbad, CA)) for 30 min in the dark. Fluorescence cells analysis was carried out by using an Accuri C6 flow cytometer. Data were processed using Flowjo_10 software. Each experiment was performed 3 times to reduce variance.

[12] = test system: post-confluent 3T3-L1 cells; conditions: 3T3-L1 preadipocytes; Hadrich & Sayadi, 2018; cited from earlier work
[13] = test system: 3T3-L1 cells; conditions: 3T3-L1 preadipocytes; Hadrich & Sayadi, 2018; cited from earlier work
[14] = Solubility of nobiletin in DMSO; format: physicochemical; conditions: organic solvent or mixture, read-out: maximal solubility in DMSO
[15] = Water solubility of nobiletin / nobiletin-HMS dispersion; format: physicochemical; conditions: 25 °C
Procedure: To check the water solubility of nobiletin in the nobiletin-HMS dispersion system, an excess of the media-milled nobiletin powder was dispersed into distilled water and agitated thoroughly for 24 hours at room temperature to reach full saturation.

[16] = test system: 3T3-L1 preadipocytes; experiment: MTT assay, pre-confluent cell proliferation; format: cell-based, mouse
Procedure: as §3, §4, §5, §6

[17] = fermented media at pH 2.0 (first of four values, pH 2.0 to 7.0)
[18] = fermented media at pH 5.0 (second of four values)
[19] = fermented media at pH 6.5 (third of four values)
[20] = fermented media at pH 7.0 (fourth of four values)

## COc1ccc(-c2cc(=O)c3c(OC)c(O)c(OC)c(OC)c3o2)cc1OC [6-OH-nobiletin, 6-hydroxy-5,7,8,3′,4′-pentamethoxyflavone]
[1]
  expression level of PPARγ: dose-dependently suppressed
[2]
  expression and phosphorylation of AMPK: greatly enhanced
[3]
  production of C/EBPα: greatly reduced
[4]
  expression of ACC: significantly suppressed their expression
[5]; 75 μM, percent of control
  viability at 36 h, 75 µM: ~82%
[5]; 100 μM, percent of control
  viability at 36 h, 100 µM: ~65%
[6]; [17]
  total amount of extracted metabolite: 123.9 ± 4.6 µg/mL
[6]; [18]
  total amount of extracted metabolite: 125.6 ± 3.2 µg/mL
[6]; [19]
  total amount of extracted metabolite: 125.8 ± 1.9 µg/mL
[6]; [20]
  total amount of extracted metabolite: 125.9 ± 1.2 µg/mL
[6]; pH 8.0
  content of extracted metabolite: 110 ± 1.7 µg/mL
[6]
  stability at alkaline condition: not stable at alkaline condition
[6]; pH 10.0
  content of extracted metabolite: 109 ± 2.6 µg/mL
[7]
  expression of FAS: significantly suppressed their expression
[8]
  change of cell viability: no significant difference
[9]; 35 μM
  viability at 24 h, 35 µM: 83.1 ± 6.2%
[9]; 50 μM
  viability at 24 h, 50 µM: 85.6 ± 5.3%
[10]
  intracellular lipid content: 69.8±2.1%
  effect on intracellular lipid accumulation: obvious suppressive effect on intracellular lipid accumulation
[10]; 50 μM, early phase treatment (day 0 to day 3)
  decrease of lipid content: 50%
[10]; 50 μM
  lipid formation / accumulation reduced to: 24.3±4.2%
[10]; 50 μM, late-phase treatment (day 4 to day 8), read-out: inhibition of lipid accumulation
  inhibition at 50 µM: 72%
[10]; early phase day 0-3, late phase day 4-8
  effect of early phase and late phase treatment on lipid accumulation: suppressed the lipid accumulation in a dose-dependent matter
[11]; 5 μM
  cells in S phase: 42%
  preadipocytes in G2/M phase: 40%
[11]; 50 μM
  population in G2/M phase: 20%
  population in S phase: 60%
[11]; serial doses in differentiation medium
  effect on cell cycle progression: significantly delayed the progression of the cell cycle and increased the S population in a dose-dependent manner

## O=c1cc(-c2ccc(O)cc2)oc2cc(O[C@@H]3O[C@H](CO)[C@@H](O)[C@H](O)[C@H]3O)cc(O)c12 [apigetrin]
[12]
  decrease of cell viability: 50%
[13]
  cell cycle arrest: arrest 3T3-L1 preadipocytes at G1 phase

## COc1ccc(-c2cc(=O)c3c(OC)c(OC)c(OC)c(OC)c3o2)cc1OC [Nobiletin, 5,6,7,8,3′,4′-hexamethoxyflavone, reference compound]
[14]
  solubility: ≤ 18000 µg/mL
[15]
  solubility: 9.2 µg/mL (≈ 22.9 µM)
[16]; up to 75 μM
  inhibitory effect on the proliferation of preadipocytes: did not show any inhibitory effect; also recorded: did not demonstrated any inhibition effect
[5]; 100 μM, read-out: cell viability reduced by
  cytotoxicity at 36 h, 100 μM: 50%
[10]
  intracellular lipid content: 101.254±6.096%
  effect on intracellular lipid accumulation: decreased the intracellular lipid content in a dose-dependent way; also recorded: obvious suppressive effect on intracellular lipid accumulation
[10]; 50 μM
  lipid formation / accumulation reduced to: 45.2±4.9%
[10]; 50 μM, read-out: reduction of lipid formation / inhibition of lipid accumulation
  inhibition at 50 µM: 50%

## COc1ccc(-c2cc(=O)c3c(OC)c(OC)c(O)c(OC)c3o2)cc1OC [7-OH-nobiletin, 7-hydroxy-5,6,8,3′,4′-pentamethoxyflavone]
[16]; even at 100 μM
  effect on cell proliferation: did not present significant effect on cell proliferation
[6]; [17]
  total amount of extracted metabolite: 46.5 ± 1.3 µg/mL
[6]; [18]
  total amount of extracted metabolite: 47.5 ± 1.9 µg/mL
[6]; [19]
  total amount of extracted metabolite: 47.6 ± 0.7 µg/mL
[6]; [20]
  total amount of extracted metabolite: 46.9 ± 1.5 µg/mL
[6]; pH 8.0
  content of extracted metabolite: 39.2 ± 1.8 µg/mL
[6]
  stability at alkaline condition: not stable at alkaline condition
[6]; pH 10.0
  content of extracted metabolite: 11.7 ± 0.6 µg/mL
[10]
  effect on intracellular lipid accumulation: obvious suppressive effect on intracellular lipid accumulation
